Data from patent US20170362228A1, “TETRAHYDRO-PYRIDO[3,4-b]INDOLE ESTROGEN RECEPTOR MODULATORS AND USES THEREOF” (Genentech, Inc., priority 2016, published 2017).
Like-named read-outs stand apart in the source and are kept apart here.

Experiments:
[1] = target: T1, estrogen receptor alpha (ESR1) (Homo sapiens, UniProt P03372); experiment: Breast Cancer Cell ERa High Content Fluorescence Imaging Degradation Assay (Example 901); assay type: cell-based; settings: MCF7 breast cancer cells, 4 hours, plateau of the maximal effect
T1 construct: endogenous in cells; host or cells: MCF7 breast cancer cells
T1 sequence (P03372 1-595): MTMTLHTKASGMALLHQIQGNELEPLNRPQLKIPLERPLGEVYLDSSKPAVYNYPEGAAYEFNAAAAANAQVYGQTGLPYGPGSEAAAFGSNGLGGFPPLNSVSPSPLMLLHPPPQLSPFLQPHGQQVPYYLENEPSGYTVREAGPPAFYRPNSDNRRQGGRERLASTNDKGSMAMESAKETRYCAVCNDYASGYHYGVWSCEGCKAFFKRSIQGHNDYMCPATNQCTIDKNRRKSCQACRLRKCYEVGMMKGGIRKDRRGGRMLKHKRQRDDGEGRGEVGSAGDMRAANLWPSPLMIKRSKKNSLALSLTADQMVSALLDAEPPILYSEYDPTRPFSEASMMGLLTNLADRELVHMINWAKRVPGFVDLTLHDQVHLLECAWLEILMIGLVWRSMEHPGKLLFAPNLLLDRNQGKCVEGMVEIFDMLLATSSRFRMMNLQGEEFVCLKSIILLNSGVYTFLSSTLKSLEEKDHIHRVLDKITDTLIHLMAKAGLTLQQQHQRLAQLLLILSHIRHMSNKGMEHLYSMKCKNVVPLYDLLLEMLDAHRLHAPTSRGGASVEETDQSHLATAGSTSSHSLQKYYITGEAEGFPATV
Method: MCF7 breast cancer cells were seeded on day 1 at a density of 10,000 cells per well in 384 well poly-lysine coated tissue culture plate (Greiner # T-3101-4), in 50 μL/well RPMI (phenol red free), 10% FBS (Charcoal stripped), containing L-glutamine. On day 2, compounds were prepared at 2 compound source concentrations: 100 μM and 1 μM (ultimately to give 2 overlapping titration curves), in a Labcyte low dead volume plate, 10 μL/well, and 10 μL of DMSO in designated wells for backfill, and 5 μM Fulvestrant (control compound) in designated wells. Compounds and controls were dispensed using a Labcyte Echo acoustic dispenser to dispense compounds with a predefined serial dilution (1.8×, 10 point, in duplicate) and appropriate backfill and control compounds (final total volume transferred was 417.5 nL and compound dispense volume ranges from 2.5 nL to 417.5 nL; 0.84% DMSO (v/v) final), ultimately producing a concentration range from 0.05 nM to 835 nM. Cell plates were incubated at 37° C., for 4 hours. Fixation and permeabilization were carried out using a Biotek EL406 plate washer and dispenser as follows. Cells were fixed by addition of 15 μL of 16% paraformaldehyde (Electron Microscopy Sciences #15710-S) directly to the 50 μL cell culture medium in each well using the peristaltic pump 5 μL cassette on a Biotek EL406 (final concentration of formaldehyde was 3.7% w/v). Samples were incubated 30 minutes. Well contents was aspirated and 50 μL/well of Phosphate Buffered Saline (PBS) containing 0.5% w/v bovine serum albumen, 0.5% v/v Triton X-100 (Antibody Dilution Buffer) was added to each well. Samples were incubated for 30 minutes. Well contents were aspirated and washed 3 times with 100 μL/well of PBS. Immunofluorescence staining of estrogen receptor alpha (ESR1) was carried out using a Biotek EL406 plate washer and dispenser as follows. The well supernatant was aspirated from the wells and 25 μL/well of anti-ESR1 mAb (F10) (Santa Cruz sc-8002) diluted 1:1000 in Antibody Dilution Buffer was dispensed. Samples were incubated for 2 hours at room temperature. Samples were washed 4 times with 100 μL/well of PBS. 25 uL/well of secondary antibody solution (Alexafluor 488 conjugate anti-mouse IgG (LifeTechnologies #A21202) diluted 1:1000 and Hoechst 33342 1 μg/ml diluted in Antibody Dilution Buffer) were dispensed into each well. Samples were incubated for 2 hours at room temperature. Samples were washed 3 times with 100 μL/well of PBS using a Biotek EL406. Quantitative fluorescence imaging of ESR1 was carried out using a Cellomics Arrayscan V (Thermo). Fluorescence images of the samples (Channel 1: XF53 Hoechst (DNA stain); Channel 2: XF53 FITC (ESR1 stain)) were acquired using a Cellomics VTI Arrayscan using the Bioapplication “Compartmental Analysis” using the auto-exposure (based on DMSO control wells) setting “peak target percentile” set to 25% target saturation for both channels. Channel 1 (DNA stain) was used to define the nuclear region (Circ). Measurements of “Mean_CircAvgIntCh2”, which is the Alexafluor 488 fluorescence intensity (ESR1) within the nuclear region, was measured on a per cell basis and averaged over all the measured cells. Data analysis was carried out using Genedata Screener Software, with DMSO and 5 nM Fulvestrant treated samples being used to define the 0% and 100% changes in ESR1. The “Robust Fit” method was used to define the inflexion point of curve (EC50) and the plateau of the maximal effect (Sinf). Degradation data for exemplary Formula I compounds is reported as ER-alpha MCF7 HCS Sinf(%) values in Table 1.

MCF7 cells = experiment: In vitro cell proliferation assays (Examples 902 and 903), MCF7; assay type: cell-based; settings: Homo sapiens, read-out: ER-alpha MCF7 HCS (EC50)
Method: Efficacy of estrogen receptor modulator compounds and chemotherapeutic compounds are measured by a cell proliferation assay employing the following protocol (Mendoza et al (2002) Cancer Res. 62:5485-5488).
The CellTiter-Glo® Luminescent Cell Viability Assay is a homogeneous method to determine the number of viable cells in culture based on quantitation of the ATP present, which signals the presence of metabolically active cells. The CellTiter-Glo® Assay is designed for use with multiwell plate formats, making it ideal for automated high-throughput screening (HTS), cell proliferation and cytotoxicity assays. The homogeneous assay procedure involves adding a single reagent (CellTiter-Glo® Reagent) directly to cells cultured in serum-supplemented medium. Cell washing, removal of medium or multiple pipetting steps are not required. The Cell Titer-Glo® Luminescent Cell Viability Assay, including reagents and protocol are commercially available (Promega Corp., Madison, Wis., Technical Bulletin TB288).
The assay assesses the ability of compounds to enter cells and inhibit cell proliferation. The assay principle is based on the determination of the number of viable cells present by quantitating the ATP present in a homogenous assay where addition of the Cell TiterGlo® reagent results in cell lysis and generation of a luminescent signal through the luciferase reaction. The luminescent signal is proportional to the amount of ATP present.
Procedure: Day 1—Seed Cell Plates (384-well black, clear bottom, microclear, TC plates with lid from Falcon #353962), Harvest cells, Seed cells at 1000 cells per 54 μl per well into 384 well Cell Plates for 3 days assay. Cell Culture Medium: RPMI or DMEM high glucose, 10% Fetal Bovine Serum, 2 mM L-Glutamine, P/S. Incubate 0/N (overnight) at 37° C., 5% CO2.
Day 2—Add Drug to Cells, Compound Dilution, DMSO Plates (serial 1:2 for 9 points). Add 20 μl of compound at 10 mM in the 2nd column of 96 well plate. Perform serial 1:2 across the plate (10 μl+20 μl 100% DMSO) for a total of 9 points using Precision Media Plates 96-well conical bottom polypropylene plates from Nunc (cat.#249946) (1:50 dilution). Add 147 μl of Media into all wells. Transfer 3 μl of DMSO+compound from each well in the DMSO Plate to each corresponding well on Media Plate using Rapidplate® (Caliper, a Perkin-Elmer Co.). For 2 drug combination studies, transfer one drug 1.5 μl of DMSO+compound from each well in the DMSO Plate to each corresponding well on Media Plate using Rapidplate. Then, transfer another drug 1.5 μl to the medium plate.
Drug Addition to Cells, Cell Plate (1:10 dilution): Add 6 μl of media+compound directly to cells (54 μl of media on the cells already). Incubate 3 days at 37° C., 5% CO2 in an incubator that will not be opened often.
Day 5—Develop Plates, Thaw Cell Titer Glo Buffer at room temperature: Remove Cell Plates from 37° C. and equilibrate to room temperature for about 30 minutes. Add Cell Titer-Glo® Buffer to Cell Titer-Glo® Substrate (bottle to bottle). Add 30 μl Cell Titer-Glo® Reagent (Promega cat.# G7572) to each well of cells. Place on plate shaker for about 30 minutes. Read luminescence on Analyst HT Plate Reader (half second per well).
Cell viability assays and combination assays: Cells were seeded at 1000-2000 cells/well in 384-well plates for 16 h. On day two, nine serial 1:2 compound dilutions were made in DMSO in a 96 well plate. The compounds were further diluted into growth media using a Rapidplate® robot (Zymark Corp., Hopkinton, Mass.). The diluted compounds were then added to quadruplicate wells in 384-well cell plates and incubated at 37° C. and 5% CO2. After 4 days, relative numbers of viable cells were measured by luminescence using Cell Titer-Glo® (Promega) according to the manufacturer's instructions and read on a Wallac Multilabel Reader® (PerkinElmer, Foster City). EC50 values were calculated using Prism® 4.0 software (GraphPad, San Diego). […]

[2] = Table 1a, DMSO and Fulvestrant define 0% and 100% changes in ESR1

ER-alpha MCF7 HCS (S inf) [1, 2] | EC50 (MCF7 cells; MCF7, Table 1a) | ER-alpha MCF7 HCS (S inf) ([1]; Table 1b) | EC50 (MCF7 cells; MCF7, Table 1b) | Structure (SMILES)
−100.96% | 0.074 nM |  |  | C[C@@H]1Cc2c([nH]c3ccccc23)[C@@H](c2c(F)cc([C@H](O)C3CN(CCCF)C3)cc2F)N1C[C@@H](F)CO (single isomer, unassigned) [Compound 137]
 |  | −100% | 0.072 nM | C[C@@H]1Cc2c([nH]c3ccccc23)[C@@H](c2ccc([C@H](O)C3CN(CCCF)C3)c(F)c2F)N1CC(F)(F)CO [Compound 173, 3-((1R,3R)-1-(2,3-difluoro-4-((R)-(1-(3-fluoropropyl)azetidin-3-yl)(hydroxy)methyl)phenyl)-3-methyl-1,3,4,9-tetrahydro-2H-pyrido[3,4-b]indol-2-yl)-2,2-difluoropropan-1-ol]
−98.7% | 0.031 nM |  |  | C[C@@H]1Cc2c([nH]c3ccccc23)[C@@H](c2ccc(C(O)C3CN(CCCF)C3)cc2F)N1CC(F)(F)CO (stereo partly drawn) [Compound 116, 2,2-difluoro-3-((1R,3R)-1-(2-fluoro-4-((1-(3-fluoropropyl)azetidin-3-yl)(hydroxy)methyl)phenyl)-3-methyl-1,3,4,9-tetrahydro-2H-pyrido[3,4-b]indol-2-yl)propan-1-ol]
−95.88% | 0.083 nM |  |  | C[C@@H]1Cc2c([nH]c3c(F)cccc23)[C@@H](c2c(F)cc([C@H](O)C3CN(CCCF)C3)cc2F)N1CC(F)(F)CO (single isomer, unassigned) [Compound 133]
−98.76% | 0.034 nM |  |  | C[C@@H]1Cc2c([nH]c3ccccc23)[C@@H](c2ccc([C@H](O)C3CN(CCCF)C3)cc2F)N1CC(F)(F)CO [Compound 129, 2,2-difluoro-3-((1R,3R)-1-(2-fluoro-4-((R)-(1-(3-fluoropropyl)azetidin-3-yl)(hydroxy)methyl)phenyl)-3-methyl-1,3,4,9-tetrahydro-2H-pyrido[3,4-b]indol-2-yl)propan-1-ol]
−99.46% | 0.039 nM |  |  | C[C@@H]1Cc2c([nH]c3ccccc23)[C@@H](c2c(F)cc([C@@H](O)C3CN(CCCF)C3)cc2F)N1CC(F)(F)CO (single isomer, unassigned) [Compound 135]
 |  | −92% | 0.17 nM | C[C@@H]1Cc2c([nH]c3ccccc23)[C@@H](c2c(F)cc(C(O)C3CN(CCC(F)F)C3)cc2F)N1CC(F)(F)CO (stereo partly drawn) [Compound 153, 3-((1R,3R)-1-(4-((1-(3,3-difluoropropyl)azetidin-3-yl)(hydroxy)methyl)-2,6-difluorophenyl)-3-methyl-3,4-dihydro-1H-pyrido[3,4-b]indol-2(9H)-yl)-2,2-difluoropropan-1-ol]
−98.52% | 0.019 nM |  |  | C[C@@H]1Cc2c([nH]c3ccccc23)[C@@H](c2ccc([C@H](F)C3CN(CCCF)C3)cc2F)N1CC(F)(F)CO [Compound 125, 2,2-difluoro-3-((1R,3R)-1-(2-fluoro-4-((R)-fluoro(1-(3-fluoropropyl)azetidin-3-yl)methyl)phenyl)-3-methyl-1,3,4,9-tetrahydro-2H-pyrido[3,4-b]indol-2-yl)propan-1-ol]
 |  | −85% | 0.38 nM | CO[C@@H](c1cc(F)c([C@@H]2c3[nH]c4ccc(F)cc4c3C[C@@H](C)N2CC(F)(F)CO)c(F)c1)C1CN(CCCF)C1 [Compound 164, 3-((1R,3R)-1-(2,6-difluoro-4-((R)-(1-(3-fluoropropyl)azetidin-3-yl)(methoxy)methyl)phenyl)-6-fluoro-3-methyl-3,4-dihydro-1H-pyrido[3,4-b]indol-2(9H)-yl)-2,2-difluoropropan-1-ol]
 |  | −101% | 0.051 nM | C[C@@H]1Cc2c([nH]c3ccccc23)[C@@H](c2ccc([C@@H](O)C3CN(CCCF)C3)c(F)c2)N1CC(F)(F)CO [Compound 172, 2,2-difluoro-3-((1R,3R)-1-(3-fluoro-4-((S)-(1-(3-fluoropropyl)azetidin-3-yl)(hydroxy)methyl)phenyl)-3-methyl-1,3,4,9-tetrahydro-2H-pyrido[3,4-b]indol-2-yl)propan-1-ol]
